In the supplement of paper PMC10307832 one finds relative viability data, which are given here for 1 cell line.

Common to all, as to assay: relative viability (nuclei count vs DMSO), 5 days (fraction); higher = more cells survive
Compound in the test “4EGI-1 + Palbociclib”: O=C(O)C(Cc1ccccc1[N+](=O)[O-])=NNc1nc(-c2ccc(Cl)c(Cl)c2)cs1 (mixture of isomers) [4EGI-1] + CC(=O)c1c(C)c2cnc(Nc3ccc(N4CCNCC4)cn3)nc2n(C2CCCC2)c1=O [Palbociclib] (partner 0.5 µM)
The essentials:
(§1)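 Lung cancer cell lines in 1536-well plates got either a single drug or a fixed anchor-drug dose together with five library-drug doses (not always all listed) in √10 steps, by pin tool, on the day after seeding. Nuclei were counted after 5 days, and relative viability is the treated-to-vehicle ratio of nuclei counts. Values are medians of duplicate plates.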

Compound in the test “XMD8-85 + Crizotinib”: CN1CCN(CC1)C2=CC(=C(C=C2)NC3=NC=C4C(=N3)N(C5=CC=CC=C5C(=O)N4C)C)OC [XMD8-85] + C[C@@H](Oc1cc(-c2cnn(C3CCNCC3)c2)cnc1N)c1c(Cl)ccc(F)c1Cl [Crizotinib] (partner 1 µM)
The essentials: as §1

Compound in the test “XMD8-85 + Navitoclax”: CN1CCN(CC1)C2=CC(=C(C=C2)NC3=NC=C4C(=N3)N(C5=CC=CC=C5C(=O)N4C)C)OC [XMD8-85] + CC1(C)CCC(c2ccc(Cl)cc2)=C(CN2CCN(c3ccc(C(=O)NS(=O)(=O)c4ccc(N[C@H](CCN5CCOCC5)CSc5ccccc5)c(S(=O)(=O)C(F)(F)F)c4)cc3)CC2)C1 [Navitoclax] (partner 0.5 µM)
Put shortly: as §1

Compound in the test “4EGI-1 + Decitabine”: O=C(O)C(Cc1ccccc1[N+](=O)[O-])=NNc1nc(-c2ccc(Cl)c(Cl)c2)cs1 (mixture of isomers) [4EGI-1] + Nc1ncn([C@H]2C[C@H](O)[C@@H](CO)O2)c(=O)n1 [Decitabine] (partner 2 µM)
The essentials:
as §1

Consider NCI-H1792, for which the relative viability with 4EGI-1 + Palbociclib (first compound 0.5 µM) was found to be 0.75; in the test with 4EGI-1 + Palbociclib (first compound 1.581 µM), 0.695; with 4EGI-1 + Palbociclib (first compound 5 µM), 0.723; with 4EGI-1 + Palbociclib (first compound 15.81 µM) it was 0.575; in the test with 4EGI-1 + Palbociclib (first compound 50 µM) it was 0.646; in the test with XMD8-85 + Crizotinib (first compound 0.08 µM) it was 0.883. In addition, the relative viability came out at 0.822 with XMD8-85 + Crizotinib (first compound 0.253 µM); 0.852 with XMD8-85 + Crizotinib (first compound 2.53 µM); 0.905 in the test with XMD8-85 + Crizotinib (first compound 8 µM); 0.488 with XMD8-85 + Navitoclax (first compound 0.08 µM); 0.398 in the test with XMD8-85 + Navitoclax (first compound 0.253 µM); 0.482 with XMD8-85 + Navitoclax (first compound 2.53 µM). Besides, the relative viability came to 0.49 with XMD8-85 + Navitoclax (first compound 8 µM); 0.568 in the test with 4EGI-1 + Decitabine (first compound 0.5 µM); 0.715 in the test with 4EGI-1 + Decitabine (first compound 1.581 µM); 0.6 with 4EGI-1 + Decitabine (first compound 5 µM); 0.488 with 4EGI-1 + Decitabine (first compound 15.81 µM); 0.369 with 4EGI-1 + Decitabine (first compound 50 µM).
